In patent US9738634B2, “Heterocyclic amide compound and herbicide” (SYNGENTA PARTICIPATIONS AG, priority 2013, dated 2017):

Experiments:
Type in all cases: in vivo
Details in all cases: treatment dosage 320 g/ha
[1] = test system: soybean; test: Test Example 4: foliar treatment, effect on crop; d: soybean
Method in brief: (§1)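 Seeds are spot-sown into sterilized diluvial soil and covered with about 1.5 cm of soil. After 14 days' greenhouse growth at 25 to 30° C, plants are sprayed on stems and leaves with diluted emulsion at the stated g/ha rate, then scored at 3 weeks.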

[2] = test system: fig-leafed goosefoot; test: Test Example 3: weedkilling efficacy through soil treatment; M: fig-leafed goosefoot
Method in brief: (§2)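 Crop and weed responses were judged three weeks after a uniform surface spray of the water-diluted emulsion at the given g/ha rate. Seeds sat beneath about 1.5 cm of sterilized diluvial soil, and boxes stood in a greenhouse at 25 to 30° C.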

[3] = test system: oval-leafed pondweed; test: Test Example 1: weedkilling efficacy, preemergent weed treatment in the submerged state; C: oval-leafed pondweed
Method in brief: (§3)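 Pre-emergence application onto floodwater (4 cm, alluvial soil) on the day of sowing, dose expressed as g/ha from diluted emulsion formulation. Weeds sown with 2.5-leaf transplanted rice as crop; plants held at 25–30 °C in greenhouse and scored against assessment criteria after 3 weeks.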

[4] = test system: chickweed; test: Test Example 4: weedkilling efficacy by foliar treatment; N: chickweed
Method in brief: as §1

[5] = test system: Indian mallow; test: Test Example 4: weedkilling efficacy by foliar treatment; K: Indian mallow
Method in brief: as §1

[6] = test system: directly sown rice; test: Test Example 4: foliar treatment, effect on crop; b: directly sown rice
Method in brief: as §1

[7] = test system: bulrush; test: Test Example 1: weedkilling efficacy, preemergent weed treatment in the submerged state; B: bulrush
Method in brief: as §3

[8] = test system: chickweed; test: Test Example 3: weedkilling efficacy through soil treatment; N: chickweed
Method in brief: as §2

[9] = test system: soybean; test: Test Example 3: soil treatment, effect on crop; d: soybean
Method in brief: as §2

[10] = test system: wild oat; test: Test Example 4: weedkilling efficacy by foliar treatment; G: wild oat
Method in brief: as §1

[11] = test system: black-grass; test: Test Example 3: weedkilling efficacy through soil treatment; H: black-grass
Method in brief: as §2

[12] = test system: bulrush; test: Test Example 2: weedkilling efficacy, growth period weed treatment in the submerged state; B: bulrush
Method in brief: (§4)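 Weeds treated at the 1-2 leaf stage by application of diluted emulsion onto floodwater (4 cm depth, alluvial soil) at specified g/ha. Grown in greenhouse at 25 to 30° C; herbicidal effect rated three weeks after treatment.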

[13] = test system: Indian mallow; test: Test Example 3: weedkilling efficacy through soil treatment; K: Indian mallow
Method in brief: as §2

[14] = test system: directly sown rice; test: Test Example 3: soil treatment, effect on crop; b: directly sown rice
Method in brief: as §2

[15] = test system: oval-leafed pondweed; test: Test Example 2: weedkilling efficacy, growth period weed treatment in the submerged state; C: oval-leafed pondweed
Method in brief: as §4

[16] = test system: barnyard grass; test: Test Example 1: weedkilling efficacy, preemergent weed treatment in the submerged state; A: barnyard grass
Method in brief: as §3

[17] = test system: beet; test: Test Example 3: soil treatment, effect on crop; f: beet
Method in brief: as §2

[18] = test system: transplanted rice; test: Test Example 1: preemergent weed treatment in the submerged state, effect on crop; a: transplanted rice
Method in brief: as §3

[19] = test system: birds-eye speedwell; test: Test Example 3: weedkilling efficacy through soil treatment; p: birds-eye speedwell
Method in brief: as §2

[20] = test system: beet; test: Test Example 4: foliar treatment, effect on crop; f: beet
Method in brief: as §1

[21] = test system: redroot pigweed; test: Test Example 3: weedkilling efficacy through soil treatment; L: redroot pigweed
Method in brief: as §2

[22] = test system: wild oat; test: Test Example 3: weedkilling efficacy through soil treatment; G: wild oat
Method in brief: as §2

[23] = test system: Italian ryegrass; test: Test Example 3: weedkilling efficacy through soil treatment; I: Italian ryegrass
Method in brief: as §2

[24] = test system: barnyard grass; test: Test Example 4: weedkilling efficacy by foliar treatment; F: barnyard grass
Description: (§5) Testing of Weedkilling Efficacy by Foliar Treatment
(§6) Sterilized diluvial soil was introduced into 21 cm long, 13 cm wide, 7 cm deep plastic boxes, and seeds of crabgrass, green foxtail, barnyard grass, wild oat, black-grass, Italian ryegrass, common wind-grass, Indian mallow, redroot pigweed, fig-leafed goosefoot, chickweed, catchweed, birds-eye speedwell, corn, soybean, rice, wheat, beet and rapeseed were each spot-sown, and covered with about 1.5 cm of soil, then the plants were grown in a greenhouse at 25 to 30° C.
(§7) After they had grown for 14 days, emulsions of compounds of the present invention prepared according to compounding example 2 were diluted with water to give the specified dosages, and applied uniformly onto the stem and leaf parts with a small sprayer. 3 weeks after the pesticide treatment the effect on each type of plant was investigated on the basis of the assessment criteria of test example 1.
(§8) A: barnyard grass, B: bulrush, C: oval-leafed pondweed, D: crabgrass, E: green foxtail, F: barnyard grass, G: wild oat, H: black-grass, I: Italian ryegrass, J: common wind-grass, K: Indian mallow, L: redroot pigweed, M: fig-leafed goosefoot, N: chickweed, O: catchweed, p: birds-eye speedwell, a: transplanted rice, b: directly sown rice, c: corn, d: soybean, e: wheat, f: beet, g: rapeseed
(§9) Further, pesticide dosage (g/ha) indicates the concentration regulated such that treatment was with only the stated number of grams (g), when calculated per hectare (ha).

[25] = test system: crabgrass; test: Test Example 3: weedkilling efficacy through soil treatment; D: crabgrass
Method in brief: as §2

[26] = test system: common wind-grass; test: Test Example 4: weedkilling efficacy by foliar treatment; J: common wind-grass
Description: as §5, §6, §7, §8, §9

[27] = test system: redroot pigweed; test: Test Example 4: weedkilling efficacy by foliar treatment; L: redroot pigweed
Method in brief: as §1

[28] = test system: wheat; test: Test Example 4: foliar treatment, effect on crop; e: wheat
Method in brief: as §1

[29] = test system: green foxtail; test: Test Example 3: weedkilling efficacy through soil treatment; E: green foxtail
Method in brief: as §2

[30] = test system: common wind-grass; test: Test Example 3: weedkilling efficacy through soil treatment; J: common wind-grass
Method in brief: as §2

[31] = test system: corn; test: Test Example 3: soil treatment, effect on crop; c: corn
Method in brief: as §2

[32] = test system: black-grass; test: Test Example 4: weedkilling efficacy by foliar treatment; H: black-grass
Method in brief: as §1

[33] = test system: Italian ryegrass; test: Test Example 4: weedkilling efficacy by foliar treatment; I: Italian ryegrass
Method in brief: as §1

[34] = test system: rapeseed; test: Test Example 4: foliar treatment, effect on crop; g: rapeseed
Description: as §5, §6, §7, §8, §9

[35] = test system: wheat; test: Test Example 3: soil treatment, effect on crop; e: wheat
Method in brief: as §2

[36] = test system: barnyard grass; test: Test Example 3: weedkilling efficacy through soil treatment; F: barnyard grass
Method in brief: as §2

[37] = test system: green foxtail; test: Test Example 4: weedkilling efficacy by foliar treatment; E: green foxtail
Method in brief: as §1

[38] = test system: barnyard grass; test: Test Example 2: weedkilling efficacy, growth period weed treatment in the submerged state; A: barnyard grass
Method in brief: as §4

[39] = test system: corn; test: Test Example 4: foliar treatment, effect on crop; c: corn
Method in brief: as §1

[40] = test system: fig-leafed goosefoot; test: Test Example 4: weedkilling efficacy by foliar treatment; M: fig-leafed goosefoot
Method in brief: as §1

[41] = test system: rapeseed; test: Test Example 3: soil treatment, effect on crop; g: rapeseed
Method in brief: as §2

[42] = test system: crabgrass; test: Test Example 4: weedkilling efficacy by foliar treatment; D: crabgrass
Method in brief: as §1

[43] = test system: catchweed; test: Test Example 4: weedkilling efficacy by foliar treatment; O: catchweed
Method in brief: as §1

CC1=C(c2cccnc2F)C(=O)N(C(C)(C)C(=O)Nc2cc(C)cc(Cl)n2)CO1 [B-2-15]
d (soybean) effect on crop grade [1]: 1 (weed kill ratio 5% or more, less than 20%)
M (fig-leafed goosefoot) weedkilling efficacy grade [2]: 3 (weed kill ratio 40% or more, less than 70%)
C (oval-leafed pondweed) weedkilling efficacy grade [3]: 5 (weed kill ratio 90% or more, (practically complete withering))
N (chickweed) weedkilling efficacy grade [4]: 4 (weed kill ratio 70% or more, less than 90%)
K (Indian mallow) weedkilling efficacy grade [5]: 1 (weed kill ratio 5% or more, less than 20%)
b (directly sown rice) effect on crop grade [6]: 5 (weed kill ratio 90% or more, (practically complete withering))
B (bulrush) weedkilling efficacy grade [7]: 5 (weed kill ratio 90% or more, (practically complete withering))
N (chickweed) weedkilling efficacy grade [8]: 2 (weed kill ratio 20% or more, less than 40%)
d (soybean) effect on crop grade [9]: 0 (weed kill ratio 5% or less (practically no effect))
G (wild oat) weedkilling efficacy grade [10]: 3 (weed kill ratio 40% or more, less than 70%)
H (black-grass) weedkilling efficacy grade [11]: 5 (weed kill ratio 90% or more, (practically complete withering))
B (bulrush) weedkilling efficacy grade [12]: 5 (weed kill ratio 90% or more, (practically complete withering))
K (Indian mallow) weedkilling efficacy grade [13]: 0 (weed kill ratio 5% or less (practically no effect))
b (directly sown rice) effect on crop grade [14]: 5 (weed kill ratio 90% or more, (practically complete withering))
C (oval-leafed pondweed) weedkilling efficacy grade [15]: 5 (weed kill ratio 90% or more, (practically complete withering))
A (barnyard grass) weedkilling efficacy grade [16]: 5 (weed kill ratio 90% or more, (practically complete withering))
f (beet) effect on crop grade [17]: 2 (weed kill ratio 20% or more, less than 40%)
a (transplanted rice) effect on crop grade [18]: 3 (weed kill ratio 40% or more, less than 70%)
P (birds-eye speedwell) weedkilling efficacy grade [19]: 4 (weed kill ratio 70% or more, less than 90%)
f (beet) effect on crop grade [20]: 3 (weed kill ratio 40% or more, less than 70%)
L (redroot pigweed) weedkilling efficacy grade [21]: 0 (weed kill ratio 5% or less (practically no effect))
G (wild oat) weedkilling efficacy grade [22]: 3 (weed kill ratio 40% or more, less than 70%)
I (Italian ryegrass) weedkilling efficacy grade [23]: 5 (weed kill ratio 90% or more, (practically complete withering))
F (barnyard grass) weedkilling efficacy grade [24]: 4 (weed kill ratio 70% or more, less than 90%)
D (crabgrass) weedkilling efficacy grade [25]: 5 (weed kill ratio 90% or more, (practically complete withering))
J (common wind-grass) weedkilling efficacy grade [26]: 5 (weed kill ratio 90% or more, (practically complete withering))
L (redroot pigweed) weedkilling efficacy grade [27]: 2 (weed kill ratio 20% or more, less than 40%)
e (wheat) effect on crop grade [28]: 2 (weed kill ratio 20% or more, less than 40%)
E (green foxtail) weedkilling efficacy grade [29]: 5 (weed kill ratio 90% or more, (practically complete withering))
J (common wind-grass) weedkilling efficacy grade [30]: 5 (weed kill ratio 90% or more, (practically complete withering))
c (corn) effect on crop grade [31]: 0 (weed kill ratio 5% or less (practically no effect))
H (black-grass) weedkilling efficacy grade [32]: 4 (weed kill ratio 70% or more, less than 90%)
I (Italian ryegrass) weedkilling efficacy grade [33]: 5 (weed kill ratio 90% or more, (practically complete withering))
g (rapeseed) effect on crop grade [34]: 4 (weed kill ratio 70% or more, less than 90%)
e (wheat) effect on crop grade [35]: 0 (weed kill ratio 5% or less (practically no effect))
F (barnyard grass) weedkilling efficacy grade [36]: 5 (weed kill ratio 90% or more, (practically complete withering))
E (green foxtail) weedkilling efficacy grade [37]: 5 (weed kill ratio 90% or more, (practically complete withering))
A (barnyard grass) weedkilling efficacy grade [38]: 4 (weed kill ratio 70% or more, less than 90%)
c (corn) effect on crop grade [39]: 4 (weed kill ratio 70% or more, less than 90%)
M (fig-leafed goosefoot) weedkilling efficacy grade [40]: 4 (weed kill ratio 70% or more, less than 90%)
g (rapeseed) effect on crop grade [41]: 2 (weed kill ratio 20% or more, less than 40%)
D (crabgrass) weedkilling efficacy grade [42]: 4 (weed kill ratio 70% or more, less than 90%)
O (catchweed) weedkilling efficacy grade [43]: 3 (weed kill ratio 40% or more, less than 70%)
